# Calls of active or inactive are those of the source. The rule behind the calls is not given here.
# Columns and labels:
# [1] = target: T1, von Hippel-Lindau disease tumor suppressor/Histone-lysine N-methyltransferase, H3 lysine-79 specific (Homo sapiens, UniProt Q8TEK3+P40337); test: PROTAC activity at VHL/DOT1L in mixed-lineage leukemia rearranged (MLL-r) human THP-1 cells assessed as induction of DOTIL degradation by measuring fold change in DOT1L protein level at 3 uM incubated for 2 hrs by western blot analysis relative to control; assay type: cell-based
# [2] = target: T1, von Hippel-Lindau disease tumor suppressor/Histone-lysine N-methyltransferase, H3 lysine-79 specific; test: PROTAC activity at VHL/DOT1L in mixed-lineage leukemia rearranged (MLL-r) human MV4-11 cells assessed as induction of DOTIL degradation by measuring fold change in DOT1L protein level at 3 uM incubated for 1 hr by western blot analysis relative to control; assay type: cell-based
# [3] = target: T1, von Hippel-Lindau disease tumor suppressor/Histone-lysine N-methyltransferase, H3 lysine-79 specific; test: PROTAC activity at VHL/DOT1L in mixed-lineage leukemia rearranged (MLL-r) human MV4-11 cells assessed as induction of DOTIL degradation by measuring fold change in DOT1L protein level at 3 uM incubated for 4 hrs by western blot analysis relative to control; assay type: cell-based
# [4] = target: T1, von Hippel-Lindau disease tumor suppressor/Histone-lysine N-methyltransferase, H3 lysine-79 specific; test: PROTAC activity at VHL/DOT1L in mixed-lineage leukemia rearranged (MLL-r) human MV4-11 cells assessed as induction of DOTIL degradation by measuring fold change in H3K79Me2 level at 3 uM incubated for 4 hrs by western blot analysis relative to control; assay type: cell-based
# [5] = target: T1, von Hippel-Lindau disease tumor suppressor/Histone-lysine N-methyltransferase, H3 lysine-79 specific; test: PROTAC activity against VHL/DOT1L in mixed-lineage leukemia rearranged (MLL-r) human THP-1 cells assessed as induction of DOT1L degradation at 3 uM preincubated with NAE inhibitor, MLN4924 for 1 hr followed by incubation with compound for 8 hrs by western blot analysis; assay type: cell-based
# [6] = target: T2, Histone-lysine N-methyltransferase EHMT2 (Homo sapiens) (UniProt Q96KQ7); test: Inhibition of human G9a using Histone H3 and SAM as substrate at 10 uM by radiometric Hotspot assay
# T2 sequence (whole entry): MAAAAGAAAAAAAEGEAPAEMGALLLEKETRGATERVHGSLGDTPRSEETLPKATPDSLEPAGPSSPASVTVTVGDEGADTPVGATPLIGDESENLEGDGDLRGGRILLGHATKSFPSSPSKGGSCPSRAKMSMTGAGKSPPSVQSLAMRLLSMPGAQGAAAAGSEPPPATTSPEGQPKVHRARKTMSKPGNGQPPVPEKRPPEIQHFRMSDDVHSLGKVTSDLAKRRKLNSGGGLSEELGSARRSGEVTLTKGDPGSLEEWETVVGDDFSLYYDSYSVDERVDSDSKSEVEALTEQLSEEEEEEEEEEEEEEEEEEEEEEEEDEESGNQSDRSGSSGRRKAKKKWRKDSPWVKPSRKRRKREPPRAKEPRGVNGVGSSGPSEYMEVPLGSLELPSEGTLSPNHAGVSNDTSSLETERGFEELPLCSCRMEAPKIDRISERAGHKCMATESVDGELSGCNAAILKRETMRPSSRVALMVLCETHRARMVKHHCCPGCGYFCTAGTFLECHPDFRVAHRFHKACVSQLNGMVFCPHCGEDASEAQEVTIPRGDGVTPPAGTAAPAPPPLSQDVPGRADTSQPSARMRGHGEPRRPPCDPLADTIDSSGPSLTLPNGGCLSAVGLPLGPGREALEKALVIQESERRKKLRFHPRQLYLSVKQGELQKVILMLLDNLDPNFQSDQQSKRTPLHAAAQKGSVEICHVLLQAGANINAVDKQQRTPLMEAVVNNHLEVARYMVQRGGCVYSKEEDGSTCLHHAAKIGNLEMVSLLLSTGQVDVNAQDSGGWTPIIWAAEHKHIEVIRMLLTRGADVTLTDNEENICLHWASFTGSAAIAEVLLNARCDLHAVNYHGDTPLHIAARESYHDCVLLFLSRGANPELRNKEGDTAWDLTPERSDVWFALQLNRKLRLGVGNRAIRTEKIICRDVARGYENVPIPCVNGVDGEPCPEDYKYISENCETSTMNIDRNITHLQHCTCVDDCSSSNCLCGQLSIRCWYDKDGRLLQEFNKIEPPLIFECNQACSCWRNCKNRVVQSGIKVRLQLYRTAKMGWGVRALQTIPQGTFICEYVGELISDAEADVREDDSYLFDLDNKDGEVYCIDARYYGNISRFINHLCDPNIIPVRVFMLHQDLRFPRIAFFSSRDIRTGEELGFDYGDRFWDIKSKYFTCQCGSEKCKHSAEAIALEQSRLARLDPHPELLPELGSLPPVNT
# T1 sequence (P40337 whole entry, looked up): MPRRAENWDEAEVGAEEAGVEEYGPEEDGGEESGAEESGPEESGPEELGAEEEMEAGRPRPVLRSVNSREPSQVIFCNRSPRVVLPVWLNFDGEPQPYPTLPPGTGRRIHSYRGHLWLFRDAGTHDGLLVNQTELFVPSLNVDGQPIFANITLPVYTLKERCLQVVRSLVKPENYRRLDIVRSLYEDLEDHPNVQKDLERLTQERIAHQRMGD
# T1 sequence (Q8TEK3 whole entry, looked up): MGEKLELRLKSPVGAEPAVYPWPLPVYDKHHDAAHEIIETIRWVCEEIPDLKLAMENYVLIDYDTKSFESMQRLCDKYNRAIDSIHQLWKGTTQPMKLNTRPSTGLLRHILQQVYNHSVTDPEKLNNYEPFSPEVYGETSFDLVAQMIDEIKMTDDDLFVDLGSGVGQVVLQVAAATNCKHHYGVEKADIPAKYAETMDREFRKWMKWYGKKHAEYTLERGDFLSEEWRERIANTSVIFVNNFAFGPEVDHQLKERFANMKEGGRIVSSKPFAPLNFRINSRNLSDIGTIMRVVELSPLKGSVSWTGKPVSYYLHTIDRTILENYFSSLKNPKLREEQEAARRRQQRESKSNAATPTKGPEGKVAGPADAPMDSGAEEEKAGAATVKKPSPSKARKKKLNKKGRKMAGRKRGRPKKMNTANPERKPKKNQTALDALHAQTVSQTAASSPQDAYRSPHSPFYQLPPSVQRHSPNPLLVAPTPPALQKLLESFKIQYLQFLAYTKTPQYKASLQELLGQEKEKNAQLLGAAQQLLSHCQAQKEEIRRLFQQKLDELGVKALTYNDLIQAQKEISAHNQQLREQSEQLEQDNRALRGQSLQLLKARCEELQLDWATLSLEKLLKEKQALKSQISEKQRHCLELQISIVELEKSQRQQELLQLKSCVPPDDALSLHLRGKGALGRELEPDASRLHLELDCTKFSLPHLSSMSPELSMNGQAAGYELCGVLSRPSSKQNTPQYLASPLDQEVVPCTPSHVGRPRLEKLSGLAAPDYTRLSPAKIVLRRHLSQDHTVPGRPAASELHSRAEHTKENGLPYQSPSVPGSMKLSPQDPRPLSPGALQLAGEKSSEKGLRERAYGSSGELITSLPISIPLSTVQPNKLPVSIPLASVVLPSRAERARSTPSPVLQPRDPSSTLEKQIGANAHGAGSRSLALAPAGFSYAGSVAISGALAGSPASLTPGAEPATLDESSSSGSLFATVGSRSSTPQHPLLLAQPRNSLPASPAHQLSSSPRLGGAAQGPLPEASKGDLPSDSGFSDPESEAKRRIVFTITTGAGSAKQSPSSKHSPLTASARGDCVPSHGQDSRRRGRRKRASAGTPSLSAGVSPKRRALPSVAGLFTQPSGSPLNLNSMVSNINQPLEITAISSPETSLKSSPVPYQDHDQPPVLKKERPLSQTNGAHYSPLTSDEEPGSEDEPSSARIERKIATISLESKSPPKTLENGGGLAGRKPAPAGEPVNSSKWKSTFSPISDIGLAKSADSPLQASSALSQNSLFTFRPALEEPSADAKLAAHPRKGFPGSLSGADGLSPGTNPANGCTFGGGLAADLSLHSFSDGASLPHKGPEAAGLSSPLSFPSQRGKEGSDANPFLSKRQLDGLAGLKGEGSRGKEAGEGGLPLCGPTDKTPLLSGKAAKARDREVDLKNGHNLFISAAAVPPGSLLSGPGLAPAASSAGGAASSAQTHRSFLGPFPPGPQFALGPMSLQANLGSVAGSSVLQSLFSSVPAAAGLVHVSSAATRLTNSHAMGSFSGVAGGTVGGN
structure (smiles),measurement,setting,value
Cc1ncsc1-c1ccc([C@H](CC(=O)NCCCCCCNC(=O)COc2nc(N)nc(Nc3cc(S(N)(=O)=O)ccc3N[C@@H](c3cccc4c3OC(F)(F)O4)c3ncccc3Cl)n2)NC(=O)[C@@H]2C[C@@H](O)CN2C(=O)[C@@H](NC(=O)C2(F)CC2)C(C)(C)C)cc1,fold change (FC),[1],0.36
same,fold change (FC),[2],1.26
same,fold change (FC),[3],0.27
same,fold change (FC),[4],0.32
same,Activity,[5],inactive
same,inhibition,[6],inactive
